Source: patent US4250170A, “Antibacterial agents Bu-2349A and B and method of using same” (Bristol-Myers Company, priority 1979, dated 1981)
In brackets after ≈: the same amount, converted by molar mass.

How the values were obtained:
[1] = tested on: Mycobacterium phlei D88 (Mp-1); assay: MIC, two-fold agar dilution; format: cell-based; details: Mycolicibacterium phlei, 18 h; Table 3; Mueller-Hinton agar, 10^-4 dilution
[2] = tested on: Escherichia coli (Ec-49), APH(3')-2; assay: MIC, two-fold agar dilution; format: cell-based; details: 18 h, Table 3, Mueller-Hinton agar, 10^-4 dilution, enzyme APH(3')-2
[3] = tested on: Neisseria meningitidis (Nm-1); assay: MIC, two-fold agar dilution; format: cell-based; details: 18 h, Table 3, GC agar, 10^-2 dilution
[4] = tested on: gram-positive and gram-negative bacteria; assay: in vitro antibacterial activity, overall statements; format: cell-based
Method: (§1) The minimum inhibitory concentrations (MIC) of Bu-2349A and B were determined against a wide variety of bacteria by the two-fold agar dilution method. Mueller-Hinton agar medium was generally used for the determination of bacterial MIC except for species of Streptococcus, Neisseria and Hemophilus for which Gonococcus agar medium (GC agar, Nissui Co., Tokyo) was used. Gifu anaerobe agar medium (GAM agar, Eiken Co., Tokyo) was used for anaerobic bacteria. The MIC's were determined after overnight incubation at 37° C. with an initial inoculum equivalent to a 10^-4 dilution of an 18-hour culture for the aerobic and anaerobic bacteria, except for Streptococcus, Neisseria and Hemophilus for which a 10^-2 dilution was used.
(§2) The influence of inoculum size on MIC was tested on Mueller-Hinton agar using an inoculum of […], 10^-2 or 10^-4 dilution of the overnight culture of test organisms.
(§3) The effect of media pH on the MIC's of Bu-2349A was determined at three pH levels (6, 7 and 8) using Mueller-Hinton agar.
(§4) The media effect on the MIC's of Bu-2349A was tested using four kinds of assay media: Mueller-Hinton agar (MHA), nutrient agar (NA), heart infusion agar (HIA) and brain heart infusion agar (BHIA). The pH was adjusted at 7 and a 10^-4 dilution of overnight culture was used for the inoculum.

[5] = tested on: Mycobacterium ranae ATCC 110 (Mr-1); assay: MIC, two-fold agar dilution; format: cell-based; details: ATCC110, 18 h, Table 3, Mueller-Hinton agar, 10^-4 dilution
[6] = tested on: Streptococcus viridans (Sv-1); assay: MIC, two-fold agar dilution; format: cell-based; details: 18 h, Table 3, GC agar, 10^-2 dilution
[7] = tested on: Enterobacter cloacae (El-35), AAC(3)-3; assay: MIC, two-fold agar dilution; format: cell-based; details: 18 h, Table 3, Mueller-Hinton agar, 10^-4 dilution, enzyme AAC(3)-3
[8] = tested on: Proteus stuartii (Ps-2), AAC(2'); assay: MIC, two-fold agar dilution; format: cell-based; details: 18 h; Table 3; Mueller-Hinton agar, 10^-4 dilution; enzyme AAC(2')
[9] = tested on: Staphylococcus aureus (Sa-77), ANT(4'); assay: MIC, two-fold agar dilution; format: cell-based; details: 18 h
[10] = tested on: Staphylococcus aureus Smith (Sa-2); assay: MIC, two-fold agar dilution; format: cell-based; details: 18 h, Table 3, Mueller-Hinton agar, 10^-4 dilution
[11] = tested on: Streptococcus pneumoniae (Dp-4); assay: MIC, two-fold agar dilution; format: cell-based; details: 18 h, Table 3, GC agar, 10^-2 dilution
[12] = tested on: Escherichia coli (Ec-9), AAC(6')-1; assay: MIC, two-fold agar dilution; format: cell-based; details: 18 h, Table 3, Mueller-Hinton agar, 10^-4 dilution, enzyme AAC(6')-1
[13] = tested on: Staphylococcus epidermidis (Si-2), ANT (4'); assay: MIC, two-fold agar dilution; format: cell-based; details: 18 h, Table 3, Mueller-Hinton agar, 10^-4 dilution, enzyme ANT (4')
[14] = tested on: Escherichia coli NIHJ (Ec-1); assay: MIC, two-fold agar dilution; format: cell-based; details: 18 h, Table 3, Mueller-Hinton agar, 10^-4 dilution
[15] = tested on: Serratia marcescens (Sm-2); assay: MIC, two-fold agar dilution; format: cell-based; details: 18 h, Table 3, Mueller-Hinton agar, 10^-4 dilution
[16] = tested on: Escherichia coli (Ec-62), AAC(3)- 1; assay: MIC, two-fold agar dilution; format: cell-based; details: 18 h, Table 3, Mueller-Hinton agar, 10^-4 dilution, enzyme AAC(3)- 1
[17] = tested on: Klebsiella pneumoniae (Kp-33), AAC(3)-3; assay: MIC, two-fold agar dilution; format: cell-based; details: 18 h, Table 3, Mueller-Hinton agar, 10^-4 dilution, enzyme AAC(3)-3
[18] = tested on: Streptococcus pyogenes (Sp-3); assay: MIC, two-fold agar dilution; format: cell-based; details: 18 h, Table 3, GC agar, 10^-2 dilution
[19] = tested on: Proteus rettgeri (Pr-2); assay: MIC, two-fold agar dilution; format: cell-based; details: Providencia rettgeri, 18 h; Table 3; Mueller-Hinton agar, 10^-4 dilution
[20] = tested on: Neisseria gonorrhoeae (Ng-1); assay: MIC, two-fold agar dilution; format: cell-based; details: 18 h, Table 3, GC agar, 10^-2 dilution
[21] = solubility; format: physicochemical; details: hydrochloride salt
[22] = tested on: Proteus vulgaris (Pv-1); assay: MIC, two-fold agar dilution; format: cell-based; details: 18 h, Table 3, Mueller-Hinton agar, 10^-4 dilution
[23] = tested on: Escherichia coli (Ec-72), ANT(2"); assay: MIC, two-fold agar dilution; format: cell-based; details: 18 h, Table 3, Mueller-Hinton agar, 10^-4 dilution, enzyme ANT(2")
[24] = tested on: Mycobacterium 607 (M6-1); assay: MIC, two-fold agar dilution; format: cell-based; details: 18 h, Table 3, Mueller-Hinton agar, 10^-4 dilution
[25] = tested on: Staphylococcus aureus Terajima (Sa-33); assay: MIC, two-fold agar dilution; format: cell-based; details: 18 h, Table 3, Mueller-Hinton agar, 10^-4 dilution
[26] = tested on: Hemophylus influenzae (He-2); assay: MIC, two-fold agar dilution; format: cell-based; details: 18 h; Table 3; GC agar, 10^-2 dilution
[27] = tested on: Escherichia coli Juhl (Ec-3); assay: MIC, two-fold agar dilution; format: cell-based; details: 18 h, Table 3, Mueller-Hinton agar, 10^-4 dilution
Method: as §1, §2, §3, §4

[28] = tested on: Proteus mirabilis (Pm-1); assay: MIC, two-fold agar dilution; format: cell-based; details: Proteus mirabilis, 18 h, Table 3; Mueller-Hinton agar, 10^-4 dilution; read-out: MIC
Method: as §1, §2, §3, §4

[29] = tested on: Staphylococcus aureus 209P (Sa-1); assay: MIC, two-fold agar dilution; format: cell-based; details: 18 h, Table 3, Mueller-Hinton agar, 10^-4 dilution
Method: as §1, §2, §3, §4

[30] = tested on: Pseudomonas aeruginosa (Pa-3); assay: MIC, two-fold agar dilution; format: cell-based; details: 18 h, Table 3, Mueller-Hinton agar, 10^-4 dilution
Method: as §1, §2, §3, §4

[31] = tested on: Escherichia coli ML-1630 (Ec-5), APH(3')-1; assay: MIC, two-fold agar dilution; format: cell-based; details: 18 h, Table 3, Mueller-Hinton agar, 10^-4 dilution, enzyme APH(3')-1
Method: as §1, §2, §3, §4

[32] = tested on: Klebsiella pneumoniae (Kp-2); assay: MIC, two-fold agar dilution; format: cell-based; details: 18 h, Table 3, Mueller-Hinton agar, 10^-4 dilution, read-out: MIC
Method: as §1, §2, §3, §4

[33] = tested on: Proteus morganii (Pg-1); assay: MIC, two-fold agar dilution; format: cell-based; details: Morganella morganii, 18 h, Table 3; Mueller-Hinton agar, 10^-4 dilution
Method: as §1, §2, §3, §4

[34] = tested on: Bacillus subtilis PCI 219 (Bs-1); assay: MIC, two-fold agar dilution; format: cell-based; details: 18 h, Table 3, Mueller-Hinton agar, 10^-4 dilution
Method: as §1, §2, §3, §4

C=C1OC(OC2C(CO)OC(Oc3ccc(C(=O)NCCCNCCCCN)cc3)C2O)C(O)C(OC2OC(CO)C(OC3OC(C)C(N)C(O)C3NC(=O)C(C)N)C(O)C2O)C1O (stereo not shown) [Bu-2349B]
MIC [1]: 25 µg/mL (≈ 27.2 µM)
MIC [2]: 3.1 µg/mL (≈ 3.37 µM)
MIC [3]: > 100 µg/mL
inhibitory activity both in vitro and in vivo ([4]; gram-positive and gram-negative bacteria, including aminoglycoside-resistant bacteria, summary statement): marked inhibitory activity
antibacterial activity ([4]; including bacteria which produce aminoglycoside-modifying enzymes): active
MIC [5]: 25 µg/mL (≈ 27.2 µM)
MIC [6]: > 100 µg/mL
MIC [7]: 12.5 µg/mL (≈ 13.6 µM)
MIC [8]: 1.6 µg/mL (≈ 1.74 µM)
MIC [9]: 50 µg/mL (≈ 54.4 µM)
MIC [10]: 12.5 µg/mL (≈ 13.6 µM)
MIC [11]: > 100 µg/mL
MIC [12]: 0.8 µg/mL (≈ 0.871 µM)
MIC [13]: 25 µg/mL (≈ 27.2 µM)
MIC [14]: 3.1 µg/mL (≈ 3.37 µM)
MIC [15]: 50 µg/mL (≈ 54.4 µM)
MIC [16]: 12.5 µg/mL (≈ 13.6 µM)
MIC [17]: 12.5 µg/mL (≈ 13.6 µM)
MIC [18]: > 100 µg/mL
MIC [19]: 3.1 µg/mL (≈ 3.37 µM)
MIC [20]: > 100 µg/mL
solubility in methanol, ethanol, dimethylsulfoxide and dimethylformamide ([21]; methanol, ethanol, dimethylsulfoxide and dimethylformamide): slightly soluble
solubility in other common organic solvents ([21]; other common organic solvents): practically insoluble
solubility in water ([21]; water): soluble
MIC [22]: 6.3 µg/mL (≈ 6.86 µM)
MIC [23]: 6.3 µg/mL (≈ 6.86 µM)
MIC [24]: 12.5 µg/mL (≈ 13.6 µM)
MIC [25]: 6.3 µg/mL (≈ 6.86 µM)
MIC [26]: > 100 µg/mL
MIC [27]: 6.3 µg/mL (≈ 6.86 µM)
MIC [28]: 25 µg/mL (≈ 27.2 µM)
MIC [29]: 12.5 µg/mL (≈ 13.6 µM)
MIC [30]: 100 µg/mL (≈ 109 µM)
MIC [31]: 6.3 µg/mL (≈ 6.86 µM)
MIC [32]: 12.5 µg/mL (≈ 13.6 µM)
MIC [33]: 100 µg/mL (≈ 109 µM)
MIC [34]: 25 µg/mL (≈ 27.2 µM)
